Our source for the IC50 values is patent publication US20230136562A1, “SPIROUREA DERIVATIVES” (Idorsia Pharmaceuticals Ltd, priority 2020, published 2023).

Where two headings read alike, the source gives them in different places.

For the test, the system named is primary neuronal cultures from embryonic rat brains. In words: Rat oscillation assay (FLIPR, neuronal calcium oscillations). The test is classed as cell-based. In outline: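 Cortical neurons from E18 Wistar rat embryos, cultured 8–10 days at high density, loaded with 1 μM Fluo-8 AM; calcium oscillations recorded by FLIPR once per second in Mg-free HBSS with 2 mM CaCl2, 20 mM HEPES, pH 7.4. Two acquisitions ("Acute", 500 sec, compound added at 250 sec; "20 min"), ± Kv7 blocker XE-991.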

The mark [1] stands for this setting: Rattus norvegicus, 20 min, AUC of fluorescence measured 20 min after compound addition, read-out: FLIPR: IC50 [nM] 20 min.
Where [2] appears, read: Rattus norvegicus, Acute phase, ratio of AUC fluorescence before and after compound addition, read-out: FLIPR: IC50 [nM] acute.

As usually defined, the IC50 is the concentration needed to halve the response being measured. For the compound `CC(NC(=O)NC1CC2(CC2)C1)c1cccc(S(F)(F)(F)(F)F)c1` (racemic) [Example 127, (±)-1-(1-(3-(pentafluoro-λ^6-sulfaneyl)phenyl)ethyl)-3-(spiro[2.3]hexan-5-yl)urea], the half-inhibitory concentration (IC50) runs as follows: under setting [1], 22 nM; under setting [2], 19 nM.

Regarding `CC(Oc1nccc(CNC(=O)NC2CC3(CCC3)C2)n1)C(F)(F)F` (single isomer, unassigned) [Example 181, 1-Spiro[3.3]hept-2-yl-3-[2-(2,2,2-trifluoro-1-methyl-ethoxy)-pyrimidin-4-ylmethyl]-urea], the IC50 came to 564 nM (AUC of fluorescence measured 20 min after compound addition, read-out: FLIPR: IC50 [nM] 20 min); 404 nM (Acute phase, ratio of AUC fluorescence before and after compound addition, read-out: FLIPR: IC50 [nM] acute).

For `O=C(NC1CC2(CCC2)C1)NC(CO)c1cccc(C(F)(F)F)c1` (racemic) [Example 76, (±)-1-[2-Hydroxy-1-(3-trifluoromethyl-phenyl)-ethyl]-3-spiro[3.3]hept-2-yl-urea], the IC50 worked out at 17 nM under setting [1] and 19 nM under setting [2].

For `N#CCC(NC(=O)NC1CC2(CCC2)C1)c1cccc(OC(F)(F)F)c1` (racemic) [Example 66, (±)-1-[2-Cyano-1-(3-trifluoromethoxy-phenyl)-ethyl]-3-spiro[3.3]hept-2-yl-urea], the IC50 worked out at 17 nM under setting [1] and 8.2 nM under setting [2].

In the case of `C=CCC(NC(=O)NC1CC2(CCC2)C1)c1cccc(C(F)(F)F)c1` (racemic) [Example 80, (±)-1-Spiro[3.3]hept-2-yl-3-[1-(3-trifluoromethyl-phenyl)-but-3-enyl]-urea], the half-inhibitory concentration (IC50) is, setting by setting: under setting [1], 14 nM; under setting [2], 13 nM.

Consider `O=C(NC1CC2(CCC2)C1)NC(c1cccc(C(F)(F)F)c1)c1c[nH]nn1` (racemic) [Example 162, (±)-1-Spiro[3.3]hept-2-yl-3-[(1H-[1,2,3]triazol-4-yl)-(3-trifluoromethyl-phenyl)-methyl]-urea], for which the half-inhibitory concentration (IC50) by setting is: under setting [1], 124 nM; under setting [2], 120 nM.

For `CC(NC(=O)NC1CC2(CCC2)C1)c1ccnc(OC(F)F)c1` (racemic) [Example 100, (±)-1-[1-(2-Difluoromethoxy-pyridin-4-yl)-ethyl]-3-spiro[3.3]hept-2-yl-urea], the IC50 is, setting by setting: under setting [1], 3.6 nM; under setting [2], 5.9 nM.

Turning to `CC(NC(=O)NC1CC2(CCC2)C1)c1cccc(OCC(F)(F)F)c1` (racemic) [Example 90, (±)-1-Spiro[3.3]hept-2-yl-3-{1-[3-(2,2,2-trifluoro-ethoxy)-phenyl]-ethyl}-urea], the IC50 runs as follows: under setting [1], 2.7 nM; under setting [2], 4 nM.

In the case of `O=C(NCc1nccc(OCC(F)(F)F)n1)NC1CC2(CC2)C1` [Example 126, 1-Spiro[2.3]hex-5-yl-3-[4-(2,2,2-trifluoro-ethoxy)-pyrimidin-2-ylmethyl]-urea], the IC50 came to 7620 nM under setting [1] and 4960 nM under setting [2].

Regarding `O=C(NC1CC2(CCC2)C1)NC1(c2cccc(C(F)(F)F)c2)COC1` [Example 44, 1-Spiro[3.3]hept-2-yl-3-[3-(3-trifluoromethyl-phenyl)-oxetan-3-yl]-urea], the IC50 under setting [1] came out at 100 nM and the IC50 under setting [2] amounted to 78 nM.

Regarding `O=C(NC1CC2(CCC2)C1)N[C@@H](CO)c1cccc(C(F)(F)F)c1` (single isomer, unassigned) [Example 184], the half-inhibitory concentration (IC50) under setting [1] stood at 5.7 nM and the IC50 under setting [2] is 8.8 nM.

Take `CC(NC(=O)NC1CC2(CC(I)C2)C1)c1ccnc(OC(F)F)c1` (racemic) [Example 166, (±)-1-[1-(2-Difluoromethoxy-pyridin-4-yl)-ethyl]-3-(6-iodo-spiro[3.3]hept-2-yl)-urea]: the IC50 is 474 nM under setting [1] and 889 nM under setting [2].

Take `CC(NC(=O)NC1CC2(CCC2)C1)c1cc(F)cc(OCC(F)(F)F)c1` (racemic) [Example 95, (±)-1-{1-[3-Fluoro-5-(2,2,2-trifluoro-ethoxy)-phenyl]-ethyl}-3-spiro[3.3]hept-2-yl-urea]: the half-maximal inhibitory concentration (IC50) came to 48 nM under setting [1] and 52 nM under setting [2].

Regarding `COc1ccc(C(F)(F)F)cc1CNC(=O)NC1CC2(CC2)C1` [Example 125, 1-(2-Methoxy-5-trifluoromethyl-benzyl)-3-spiro[2.3]hex-5-yl-urea], the IC50 under setting [1] was 1990 nM and the half-maximal inhibitory concentration (IC50) under setting [2] is 1820 nM.
